{"source": "patent US9422324B2", "about": "“6-substituted demethyl-estradiol derivatives as selective ER-β agonists” (priority 2010, dated 2016)", "key": {"ERβ": {"target": "ERβ (Homo sapiens (Human), UniProt Q92731)", "sequence (Q92731 whole entry, species assumed)": "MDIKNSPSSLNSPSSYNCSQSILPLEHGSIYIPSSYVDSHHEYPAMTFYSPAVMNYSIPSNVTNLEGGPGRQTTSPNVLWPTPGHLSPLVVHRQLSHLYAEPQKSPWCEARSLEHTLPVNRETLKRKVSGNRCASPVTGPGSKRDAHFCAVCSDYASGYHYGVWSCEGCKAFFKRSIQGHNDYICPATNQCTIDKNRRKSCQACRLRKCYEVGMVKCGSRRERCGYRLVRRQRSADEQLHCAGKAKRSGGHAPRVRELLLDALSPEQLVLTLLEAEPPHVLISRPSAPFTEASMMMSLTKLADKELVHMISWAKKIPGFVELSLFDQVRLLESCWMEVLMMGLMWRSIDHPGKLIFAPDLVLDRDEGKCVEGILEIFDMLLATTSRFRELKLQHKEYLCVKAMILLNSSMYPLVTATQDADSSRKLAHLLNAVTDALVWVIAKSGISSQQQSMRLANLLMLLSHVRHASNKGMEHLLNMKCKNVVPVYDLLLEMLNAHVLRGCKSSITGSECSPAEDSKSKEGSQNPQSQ", "experiment": "Luciferase reporter assay in MDA-MB-231 cells transfected with ERα or ERβ", "format": "cell-based", "settings": "MDA-MB-231, 24 hours; relative to B and I; from FIGS. 2 and 3 and Table 1", "procedure": "Response of I and B on ERα and ERβ is measured by a luciferase assay. MDA-MB-231 cells are transiently transfected with expression vectors encoding either ERα or ERβ and co-transfected with a luciferase reporter construct. Cells are treated for 24 hours at […] with increasing amounts of test article."}, "TREK1": {"tested_on": "TREK1", "experiment": "Expression profiling (Agilent microarray), TREK1 gene transcription in tumor cell lines", "format": "cell-based, human", "settings": "24 hours", "procedure": "(§1) The study includes three human tumor cell lines: A549, Panc-1, and SK-OV-3. The lines are each grown in two flasks cultured to roughly 40% confluence. One of the flasks is treated by addition of drug to the culture media at a various concentrations. The other, mock treated, flask is treated only with the vehicle used to solubilize and deliver the drug. RNA extracted from the pairs of treated and untreated samples is subjected to microarray analysis on Agilent Whole Human Genome Microarrays (G4112F). Each analysis reports the difference in abundance of messenger RNAs for each of the 41,000 specific mRNA detectors on the array. This direct comparison of the treated versus untreated samples for each cell line provides extremely sensitive detection of changes in mRNA abundance resulting from the drug treatment. As each cell line comparison is self-normalized, the results can be compared across the samples with high confidence.\n(§2) Three human tumor cell lines, A549, Panc-1, and SK-OV-3, are each grown in two flasks cultured to roughly 40% confluence. One of the flasks is treated by addition of compound 1 to the culture media at concentrations according to Table 1 above. The other, mock treated, flask is treated only with the vehicle used to solubilize and deliver the drug. All flasks are cultured for a further 24 hours, and then the cells are scraped free and washed in ice-cold PBS, then collected by centrifugation. The harvested cells are immediately frozen, and stored at −80° C. or colder. It is visually noticeable that the treated cells yielded less mass than the untreated cells.\n(§3) Total RNA is prepared from the frozen tissue samples using Trizol-based cell lysis followed by 65° C. hot phenol extraction and RNeasy chromatography purification. The purified RNA samples are analyzed spectrophotometrically. The concentration of RNA is determined by measuring the absorbance at 260 nm (A260). Given an absorbance of 1 unit at 260 nm corresponds to […].\n(§4) All RNAs are labeled using 1 microgram of RNA as input to an Agilent Low Input Labeling reaction.\n(§5) Test RNA is labeled with Cy5 (650 nm emitter) and reference RNA is labeled with Cy3 (550 nm emitter) nucleotides. Labeling, hybridizations and subsequent washings are carried out on Agilent H1Av2 human expression chips. The resulting hybridized chips are scanned on an Agilent microarray scanner, and intensity information for each detector spot is extracted from the scanned image using Agilent feature extraction software. The set of data images and extracted measurements from each image are supplied.\n(§6) The data reported are the red (treated) and green (untreated) background-subtracted signals. This is the least modified form of the data. A background “surface” is estimated across the slide, based on numerous probes that are not complementary to human DNA. These serve as estimators of both non-specific binding of labeled cRNA to array surfaces and non-specific binding of labeled cRNA to the immobilized DNA oligomers. Using this information, local noise around each probe is estimated and this is subtracted from the signal found at the area of oligonucleotide deposition for each particular probe feature on the array (gBGSubSignal, rBGSubSignal). The ratio of signal from the RNA of the treated cell and the RNA of the untreated cell is reported both as a direct ratio and as the log2 ratio (Ratio, Log2Ratio).\n(§7) After the ratios have been calculated for the normalized data, the various control and duplicate samples are analyzed to build a model of how reproducible the results are, and how this reproducibility is varies depending on signal strength and noise. With these parameters, an estimate of the likelihood that each ratio could have arisen if the red and green intensities are randomly drawn from a single process that produced the same distribution of intensities is produced. […]"}, "TREK2": {"tested_on": "TREK2", "experiment": "Expression profiling (Agilent microarray), TREK2 gene transcription in tumor cell lines", "format": "cell-based, human", "settings": "24 hours", "procedure": "as §1, §2, §3, §4, §5, §6, §7"}}, "data": [{"smiles": "COC[C@@H]1C[C@@H]2[C@H](CCC3[C@H]2CC[C@@H]3O)c2ccc(O)cc21", "note": "(stereo partly drawn) [compound 1, (6R,8S,9S,14S,17S)-6-(methoxymethyl)-7,8,9,11,12,13,14,15,16,17-decahydro-6H-cyclopenta[a]phenanthrene-3,17-diol]", "values": [{"measurement": "ER subtype functional profile (% of E2 activity on ERα and ERβ)", "setting": "ERβ", "result": "ERβ specific agonist"}, {"measurement": "TREK1 Log 2 ratio treated/untreated", "setting": "TREK1; A549, 50 μM", "result": "4.07/"}, {"measurement": "TREK1 Log 2 ratio treated/untreated", "setting": "TREK1; A549, 100 μm", "result": "3.53/"}, {"measurement": "TREK1 Log 2 ratio treated/untreated", "setting": "TREK1; PANC1, 50 μM", "result": "2.05/"}, {"measurement": "TREK1 Log 2 ratio treated/untreated", "setting": "TREK1; PANC1, 20 μm", "result": "4.78/"}, {"measurement": "TREK1 Log 2 ratio treated/untreated", "setting": "TREK1; PANC1, 100 μm", "result": "3.51/"}, {"measurement": "TREK1 Log 2 ratio treated/untreated", "setting": "TREK1; SKOV-3, 50 μM", "result": "2.80/"}, {"measurement": "TREK1 Log 2 ratio treated/untreated", "setting": "TREK1; SKOV-3, 20 μm", "result": "1.96/"}, {"measurement": "TREK1 Log 2 ratio treated/untreated", "setting": "TREK1; SKOV-3, 100 μm", "result": "1.97/"}, {"measurement": "TREK2 Log 2 ratio treated/untreated", "setting": "TREK2; A549, 50 μM", "result": "5.37/"}, {"measurement": "TREK2 Log 2 ratio treated/untreated", "setting": "TREK2; A549, 20 μm", "result": "3.79/"}, {"measurement": "TREK2 Log 2 ratio treated/untreated", "setting": "TREK2; A549, 100 μm", "result": "3.00/"}, {"measurement": "TREK2 Log 2 ratio treated/untreated", "setting": "TREK2; PANC1, 50 μM", "result": "4.20/"}, {"measurement": "TREK2 Log 2 ratio treated/untreated", "setting": "TREK2; PANC1, 20 μm", "result": "4.15/"}, {"measurement": "TREK2 Log 2 ratio treated/untreated", "setting": "TREK2; PANC1, 100 μm", "result": "3.91/"}, {"measurement": "TREK2 Log 2 ratio treated/untreated", "setting": "TREK2; SKOV-3, 50 μM", "result": "5.56/"}, {"measurement": "TREK2 Log 2 ratio treated/untreated", "setting": "TREK2; SKOV-3, 20 μm", "result": "4.12/"}, {"measurement": "TREK2 Log 2 ratio treated/untreated", "setting": "TREK2; SKOV-3, 100 μm", "result": "4.07/"}]}]}
